Experiment [1] addresses T1, MPC1-D118G (Saccharomyces cerevisiae, UniProt P38857+P53157, D118G).
T1 construct: expressed in transfected cells; host or cells: S. cerevisiae mpc1Δ strain carrying an MPC1-D118G plasmid; isolated mitochondria
As to the kind of experiment: 14C-pyruvate uptake into isolated yeast mitochondria expressing MPC1-D118G. Type of experiment: biochemical. The note with it: 0.2 mM UK-5099, 2 min preincubation, vs DMSO. On the procedure:
(§1) Yeast mitochondria were isolated using a simplified version of the method described by Boldogh and Pon [Wittig et al., 2006]. Briefly, yeast were grown in synthetic 2% raffinose media to an A600˜3.0 and collected. The cells were pelleted, washed with sterile water, re-pelleted, and then frozen at −80° C. Mitochondrial isolation began by thawing the cells on ice, digesting the cell wall with lyticase (Sigma) for one hour to generate spheroplasts. Following 40 minutes in regeneration buffer, spheroplasts were lysed using a Dounce homogenizer. The mitochondria were further purified through several high and low speed centrifugation steps.
(§2) Mitochondria used for pyruvate uptake experiments were extracted from live cells, kept on ice and used within 5 hours of harvest without freezing. An estimate of mitochondrial concentration was calculated using A280. Samples were then diluted to yield equal mitochondrial mass and centrifuged at 10000 rpm for 10 minutes to pellet mitochondria. The supernatant was then removed and the mitochondrial pellet was resuspended in respiratory buffer (120 mM KCl, 5 mM KH2PO4, 1 mM EGTA, and 3 mM HEPES pH 7.4) and placed on ice.
(§3) To initiate pyruvate uptake, 50 μL of mitochondria was added to 100 μL of room temperature respiratory buffer at pH 6.8 in a microcentrifuge tube. […] Five biological replicates were analyzed per group. […]

The target in experiment [2] is T2, MPC1 (Saccharomyces cerevisiae, UniProt P38857+P53157).
T2 construct: expressed in transfected cells; host or cells: S. cerevisiae mpc1Δ strain carrying an MPC1 plasmid; isolated mitochondria
T2 sequence (P53157 1-130): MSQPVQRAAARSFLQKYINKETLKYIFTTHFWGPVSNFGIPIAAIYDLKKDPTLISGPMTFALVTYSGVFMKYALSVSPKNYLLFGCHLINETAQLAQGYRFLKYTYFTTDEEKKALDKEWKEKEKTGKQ
T2 sequence (P38857 1-129): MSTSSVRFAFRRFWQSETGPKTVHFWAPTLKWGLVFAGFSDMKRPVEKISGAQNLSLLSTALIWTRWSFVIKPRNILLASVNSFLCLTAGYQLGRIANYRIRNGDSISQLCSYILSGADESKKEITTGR
The experiment can be described thus: 14C-pyruvate uptake into isolated yeast mitochondria expressing wild-type MPC1. Type of experiment: biochemical. The note with it: 0.2 mM UK-5099, 2 min preincubation, vs DMSO. The method, then: as §1, §2, §3

In experiment [3] the test system is MPC1 D118G. The experiment can be described thus: Growth of yeast expressing MPC1 D118G in the presence of UK-5099. Format: cell-based, Saccharomyces cerevisiae. Conditions: D118G substitution in MPC1; 500 μM UK-5099 in plates. On the procedure: (§4) A plasmid library harboring MPC1 mutants was generated by PCR mutagenesis using methods previously described [Hinman et al., 1981]. mpc1Δ mpc3Δ mae1Δ triple mutant yeast cells were transformed with the MPC1 mutant library and plated onto SD-Ura-Leu supplemented 500 μM UK-5099. Plates were incubated at 30° C. for 72 hours and mutant plasmids were isolated from viable colonies, amplified in E. coli., and then transformed into naive mpc1Δ mpc3Δ mae1Δ triple mutant yeast cells to confirm the conferral of resistance to UK-5099. An MPC1 mutant containing a D118G substitution was recovered from this screen. To quantify UK-5099 resistance conferred by the D118G substitution, uniform suspensions of mpc1Δ mpc3Δ mae1Δ triple mutant yeast cells were transformed with 2 μg empty vector, plasmid harboring wild-type MPC1, or plasmid harboring MPC1 D 118G, and then plated onto either SD-Ura, SD-Ura-Leu, or SD-Ura-Leu plus 500 μM UK-5099.

Experiment [4] has as its system mae1Δmpc1Δ double mutant. The experiment can be described thus: Growth of mae1Δmpc1Δ yeast expressing wild-type MPC1 on glucose medium lacking leucine. Type of experiment: cell-based, Saccharomyces cerevisiae. The note with it: rescue by transgenic wild-type MPC1; 500 μM UK-5099 in plates.
Excerpt: Saccharomyces cerevisiae haploid strain BY4741 (MATa his3 leu2 met15 ura3) was used as the parental wild-type strain in the mae1Δ mpc1Δ spot tests and JRY472 (W303a MATa his3 leu2 met15 trp1 ura3) was used as the strain for all other experiments. Single deletion mutations were created in diploid strains by the standard PCR-based homologous recombination method using KanMX4 (kanamycin resistance), NatMX4 (nourseothricin resistance), or HphMX4 (hygromycin B resistance) cassettes to replace the entire gene, followed by sporulation and tetrad dissection to isolate the desired haploid knockout. Double and triple deletion mutants were created by standard crosses. Deletion strains were verified by PCR.
as §4, with “Plates were incubated at 30° C. for 72 hours and mutant plasmids were isolated from viable colonies, amplified in E. coli., and then transformed into naive mpc1Δ mpc3Δ mae1Δ triple mutant yeast cells to confirm the conferral of resistance to UK-5099. An MPC1 mutant containing a D118G substitution was recovered from this screen.” left out

Experiment [5] concerns the target T3, mitochondrial pyruvate carrier (Rattus norvegicus, UniProt P38718+P63031).
T3 sequence (P63031 1-109): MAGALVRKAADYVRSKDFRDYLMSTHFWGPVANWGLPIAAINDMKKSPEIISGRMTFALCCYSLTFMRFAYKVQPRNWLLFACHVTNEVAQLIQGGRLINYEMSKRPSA
T3 sequence (P38718 1-127): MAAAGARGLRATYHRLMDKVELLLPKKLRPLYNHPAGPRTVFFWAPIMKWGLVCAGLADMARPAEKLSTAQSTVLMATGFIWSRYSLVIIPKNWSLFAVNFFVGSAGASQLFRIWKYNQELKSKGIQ
Conditions: Halestrap 1975; cited from earlier work.

Each structure is given as a SMILES string.

T1 sequence (P53157 whole entry D118G, one chain of several): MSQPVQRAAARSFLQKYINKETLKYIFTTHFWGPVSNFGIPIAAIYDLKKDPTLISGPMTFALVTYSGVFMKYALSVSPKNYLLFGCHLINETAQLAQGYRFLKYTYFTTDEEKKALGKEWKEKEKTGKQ

In the case of `N#C/C(=C\c1cn(-c2ccccc2)c2ccccc12)C(=O)O` [UK-5099], the “14C-pyruvate uptake into mitochondria” value in experiment [1] is given as “efficient pyruvate uptake that is resistant to UK-5099”; in experiment [2], “almost completely inhibited”. Moreover, in experiment [3], the “growth in the presence of UK-5099” value was “conferred UK-5099 resistance”. In addition, the “growth on glucose medium lacking leucine” value in experiment [4] is “effectively rescued by transgenic expression of wild-type MPC1 in the absence, but not the presence, of UK-5099”. Besides, in experiment [5], the “inhibition of carrier activity” value is “specific and potent inhibitors of carrier activity”.
